For orientation: CL/F means clearance divided by bioavailability, as obtained after extravascular dosing.

Read-outs that look alike come from different tables or passages of the source. A value given as a limit tells only on which side of the number the result lay.

Series [1] in a line: Plasma pharmacokinetics of free and total GCM after i.v. or oral administration (LC-MS/MS, with or without β-glucuronidase hydrolysis). The series is classed as in vivo, Sprague-Dawley rats. From the text: Male Sprague-Dawley rats (200 ± 20 g) were obtained from SJA Laboratory Animal Co. Ltd. (Hunan, China). All animals were kept under standard conditions of light, humidity, and temperature, and were allowed free access to a standard diet and water. All animal experiments were approved by the Animal Ethics Committee of Bijie City First People’s Hospital (BY[2019]-02-198). On the day before GCM administration, rats were subjected to a minor surgical procedure. Briefly, a polyurethane catheter (0.59 mm ID, 0.94 mm OD; Skillsmodel Limited, Beijing, China) was cannulated into the right jugular vein while under anesthesia induced using an intraperitoneal dose of chloral hydrate at 350 mg/kg. After surgery, the rats were individually placed in metabolism cages to allow recovery for at least 24 h. The rats were fasted overnight with free access to water before GCM administration.
All GCM dosing drugs were freshly prepared at a concentration of 10 mg/mL prior to the experiments. Briefly, GCM was dissolved in normal saline containing 5% (v/v) Solutol HS 15. The animals were randomly divided into three groups. The i. v. administration group was treated intravenously with […] by quick injection through the cannulated catheter, and approximately 0.2 mL saline with 20 units of heparin was injected to flush the catheter and prevent blood coagulation. The oral administration group was treated with […] in a single gastric gavage dose, and the intraperitoneal injection group received 20 mg/kg GCM through intraperitoneal injection.
Approximately 0.3 mL blood samples were collected via the cannula and placed into heparinized micro centrifuge (Eppendorf) tubes at multiple time-points (0.08, 0.25, 0.50, 1, 2, 3, 4, 5, 6, 7, 8, 10, 12, and 24 h) after GCM administration. The samples were centrifuged at 3000 × g for 5 min at 4°C for plasma separation; a 0.1 mL aliquot of each separated plasma sample was harvested and stored at −40°C until assessed.
Free (parent drug) and/or total (including parent and glucuronidated metabolites) GCM concentrations in rat plasma, tissues, urine, and bile were quantitatively assayed using LC-MS/MS before and after hydrolytic treatment with β-glucuronidase.
Aliquots (100 μL) of plasma samples were divided into two equal fractions for determining the free and total GCM concentrations, as previously described ([Chang et al., 2012]). Briefly, two aliquots of 50 μL plasma were incubated at 37°C with or without β-glucuronidase at a concentration of 1,200 units for total and free GCM, respectively. After 40 min of incubation, 10 μL of IS (1,000 ng/mL) was added to the mixtures followed by extraction with ethyl acetate. After centrifugation, the clear ethyl acetate layer was transferred and concentrated using a freeze-dry concentration method at 4°C. Subsequently, the remaining material was reconstituted in 200 μL of 90% (v/v) methanol. A 10 μL aliquot of the supernatant was injected into the LC-MS/MS system for analysis.
An LC-MS/MS system comprising an Agilent 1260 HPLC system (Palo Alto, CA, United States) and an Applied Biosystems 4500 Q-Trap mass spectrometer equipped with an electrospray ionization source (Foster City, CA, United States) was used. Chromatographic separation was performed on a C18 column (100 × 4.6 mm, 3 μm, Thermo Fisher Scientific, Waltham, MA, United States) maintained at 30°C. The mobile phases comprised 0.1% (v/v) formic acid in water (A) and acetonitrile (B) at a flow rate of 0.4 mL/min. […] The total run time was 4 min. For mass spectrometry detection, the positive ion mode was used and the ion spray voltage was set at 5,500 V. The operating conditions were as follows: ion source temperature, 450°C; curtain gas, 20 psi; collision gas, medium. Ion source gases 1 and 2 were both at 60 psi. The collision energies were 37 and 42 V, and the declustering potentials for GCM and IS were 110 and 136 V, respectively. […]

Series [2] is described as follows: Urinary excretion of free and total GCM after i.v. administration. The series is classed as in vivo, rats. As to conditions: Sprague-Dawley, rat, urine, iv, 10 mg/kg, free GCM, i.v. 10 mg/kg. On the procedure:
Six rats were individually placed in metabolic cages and administered 10 mg/kg GCM by i. v. injection. Urine samples were collected over 24 h after administration in a urine reservoir containing 2 mL 0.1% HCl to avoid GCM degradation. Each urine reservoir was rinsed with 5 mL normal saline after collection. Every urine sample was diluted to 20 mL with normal saline and then stored at −40°C until assayed.
(§1) Two aliquots of 50 μL prepared bile or urine samples were spiked with or without β-glucuronidase to determine the total or free GCM concentrations, as described above. The mixtures were incubated at 37°C for 40 min, and the mixtures were then spiked with 120 μL of ice-cold methanol containing IS to stop incubation. A 10 μL supernatant of each sample was used for the analysis.
(§2) An LC-MS/MS system comprising an Agilent 1260 HPLC system (Palo Alto, CA, United States) and an Applied Biosystems 4500 Q-Trap mass spectrometer equipped with an electrospray ionization source (Foster City, CA, United States) was used. Chromatographic separation was performed on a C18 column (100 × 4.6 mm, 3 μm, Thermo Fisher Scientific, Waltham, MA, United States) maintained at 30°C. The mobile phases comprised 0.1% (v/v) formic acid in water (A) and acetonitrile (B) at a flow rate of 0.4 mL/min. […] The total run time was 4 min. For mass spectrometry detection, the positive ion mode was used and the ion spray voltage was set at 5,500 V. The operating conditions were as follows: ion source temperature, 450°C; curtain gas, 20 psi; collision gas, medium. Ion source gases 1 and 2 were both at 60 psi. The collision energies were 37 and 42 V, and the declustering potentials for GCM and IS were 110 and 136 V, respectively. Quantification was performed by multiple reaction monitoring (MRM) of molecular ions and product ions at m/z 369.3 and 284.7 for GCM and 337.0 and 280.9 for IS (Supplementary Figure S1). Analyst® software (Version 1.6.3) was used for data acquisition and peak integration.

Series [3] is described as follows: Biliary excretion of free and total GCM after i.v. administration. The series is classed as in vivo, rats. As to conditions: free GCM, i.v. 10 mg/kg; for dose excreted: Sprague-Dawley, rat, bile, iv, 10 mg/kg, read-out: Bile recovery. On the procedure: Rats (n = 6) underwent bile fistula cannulation under anesthesia prior to bile sample collection. Bile samples from rats following i. v. GCM administration (10 mg/kg) were collected via cannula every 2 h over an 8 h collection period. Samples were collected from the catheter and delivered into acidified (0.1% HCl) centrifuge tubes. The rats were placed on thermostatic plates and kept under mild anesthesia throughout the experiment. The bile samples were diluted with saline and stored at −40°C until assayed.
as §1, §2

A short description of series [4]: Tissue distribution of GCM after intraperitoneal administration. As to conditions: intraperitoneal 20 mg/kg, rats. The series is classed as in vivo. On the procedure:
Twenty-five rats were randomly divided into five groups and administered 20 mg/kg GCM intraperitoneally. Samples of various tissues (heart, liver, spleen, lung, kidney, and brain) of a certain weight were collected from the rats at 0.5, 1, 2, 4, and 6 h following GCM administration. All tissues were then rinsed with normal saline to clean the blood, blotted with filter paper, and stored at −40°C until use. Blood samples were collected via the carotid artery at the specified time points, and plasma samples were harvested as described above.
Tissue samples were accurately weighed and homogenized in ice-cold saline (1:4, w/v) using a glass tissue homogenizer. Homogenized organs were centrifuged at 12,000 × g for 10 min to obtain clear supernatants; the supernatant was then transferred to a clean test tube kept at −40°C until assayed.
as §2

A short description of series [5]: In vitro stability of GCM in pH buffers and gastrointestinal content solutions. The series is classed as in vitro ADME, rats. As to conditions: 4 h at 37°C, 0.8 μg/mL. On the procedure: The gastrointestinal tract solutions were collected as described previously ([Kong et al., 2013]). Briefly, rats were fasted overnight and sacrificed; the entire stomach, small intestine, and colon of each rat were removed, and their contents were rapidly collected on ice. Each of the contents was suspended in buffer solutions at pH 1.2, 6.8, and 7.4. Following mixing and centrifugation, the protein content of the gastrointestinal tract solutions was assayed using the BCA protein assay kit from Solarbio (Beijing, China) and then adjusted to 12 mg/mL for further study.
The stability of GCM in the gastrointestinal tract, including chemical stability and enzymatic stability, was assessed using an in vitro method as described previously ([Kong et al., 2013]). Briefly, GCM was spiked into different pH (1.2, 6.8, and 7.4) buffers and gastrointestinal content solutions containing the GCM at a final concentration of 0.8 μg/mL. The solutions were then mixed and incubated at 37°C. Aliquots of 200 μL samples were collected at 0.5, 1, 2, and 4 h, and 200 μL ice-cold methanol containing 200 ng/mL IS was added to stop the incubation. After centrifugation, 10 μL of the supernatant was used for analysis. Each experiment was performed in triplicate.

Another series deals with CYP1A2. On the set-up: method as in Li et al., 2017; Kuang et al., 2021. As to conditions: human liver microsomes; ref Li et al., 2017; Kuang et al., 2021; cited from earlier work. For orientation: Liver microsomes are vesicles of endoplasmic reticulum, rich in cytochrome P450 enzymes.
A further series concerns CYP2B6. On the set-up: method as in Li et al., 2017; Kuang et al., 2021. As to conditions: human liver microsomes; ref Li et al., 2017; Kuang et al., 2021; cited from earlier work.
In the next series the test system is CYP2C8. On the set-up: method as in Li et al., 2017; Kuang et al., 2021. As to conditions: human liver microsomes; ref Li et al., 2017; Kuang et al., 2021; cited from earlier work.
The next series concerns CYP2C9. As to conditions: human liver microsomes, cited from earlier work.
The test system of a further series is CYP2C19. Further details: method as in Li et al., 2017; Kuang et al., 2021. As to conditions: human liver microsomes; ref Li et al., 2017; Kuang et al., 2021; cited from earlier work.
On the set-up of series [6]: method as in Li et al., 2017; Kuang et al., 2021. As to conditions: human liver microsomes; ref Li et al., 2017; Kuang et al., 2021; cited from earlier work.
In the next series the test system is CYP2D6. Further details: method as in Qiao et al., 2014a. As to conditions: ref Qiao et al., 2014a; cited from earlier work.
A further series has as its system CYP1A1. Further details: method as in Kim et al., 2016. As to conditions: human liver microsomes; ref Kim et al., 2016; cited from earlier work.
Details of series [7]: method as in Wang et al., 2015. As to conditions: ref Wang et al., 2015; cited from earlier work.
The mark [8] stands for this setting: male, Sprague-Dawley, iv, free GCM, i.v. 10 mg/kg, rat plasma.

In the case of `COc1c(CC=C(C)C)c(O)cc2oc(=O)c(-c3ccc(O)cc3O)cc12` [GCM, Glycycoumarin], the “Parent GCM in plasma collected after 6 h” value in [1] (free GCM, i.v. 10 mg/kg) was “almost undetectable”. Also, the apparent clearance CL/F in [1] (free GCM, i.v. 10 mg/kg, rats) was 149 ± 33.3 mL/min/kg. The “Vd, λz/F” value in series [1] (free GCM, i.v. 10 mg/kg, rats, in L/kg) stood at 9.25 ± 3.13. Moreover, the “Free GCM in plasma after 2 h” value in series [1] (free GCM, oral 20 mg/kg) is given as “almost undetectable”. The “AUC0-∞ of conjugated (glucuronidated) GCM relative to free GCM” value in series [1] (i.v. 10 mg/kg, rat plasma) is on record as “approximately four-times higher”. In series [1] (setting [8]), this compound yielded an AUC(0-inf) of 1170 ± 283 ng·h/mL, an AUC(0-t) of 1160 ± 284 ng·h/mL and a C0 of 5690 ± 1360 ng/mL. In series [1] (male, Sprague-Dawley, iv, free GCM, i.v. 10 mg/kg, rat plasma, read-out: t1/2, λz (converted)), the half-life is 42.6 ± 6.6 min. The dose excreted in [2] (0–12 h, read-out: Urine recovery) stood at 0.28 ± 0.25%. Moreover, the dose excreted in series [2] (0–24 h, read-out: Urinary recovery over 24 h) amounted to 0.39%. Moreover, the dose excreted in [2] (12–24 h, read-out: Urine recovery) amounted to 0.11 ± 0.1%. Moreover, in [3] (0–2 h), the dose excreted was determined as 0.2 ± 0.12%. Also, in series [3] (2–4 h), the dose excreted was 0.08 ± 0.06%. Also, the dose excreted in [3] (4–6 h) came out at 0.05 ± 0.04%. The “Parent form excreted from bile over 0–8 h” value in series [3] (0–8 h) is < 1 % of the delivered dose. In addition, in series [4], the Blood-brain barrier crossing result is on record as “cannot cross the blood-brain barrier”; the “GCM in brain samples” value is “not detected”; the “Tissue concentration rank order” value is “liver, followed by that in the spleen, lung, heart, and kidney”. In addition, in series [4] (6 h), the “GCM levels in most tissues by 6 h after dosing” value is listed as “undetectable levels”. Also, in series [5], the “Stability in colon content solutions” value is listed as “unstable”, the “Stability in small intestine content solutions” value is “unstable” and the “Stability in stomach content solutions” value was “relatively stable”. In addition, the “Stability in pH buffer solutions” value in [5] (pH 1.2, 6.8 and 7.4) is “relatively stable”. The CYP1A2 inhibition entry with CYP1A2 is on record as “strongly inhibit”. Also, the CYP2B6 inhibition entry in the series on CYP2B6 is reported as “strongly inhibit”. Besides, the CYP2C8 inhibition entry in the series on CYP2C8 was “strongly inhibit”. Besides, the CYP2C9 inhibition entry in the series with CYP2C9 (ref Li et al., 2017, Kuang et al., 2021) is “strongly inhibit”. For the same compound, the CYP2C19 inhibition entry in the series with CYP2C19 was “strongly inhibit”. The UGT1A19 inhibition result in series [6] is reported as “strongly inhibit”. Besides, in the series on CYP2D6, the CYP2D6 activity inhibition entry is listed as “significantly inhibits”.
Take `COc1c(CC=C(C)C)c(O)cc2oc(=O)c3c4ccc(O)cc4oc3c12` [Glycyrol]: in the series with CYP2C9 (ref Kim et al., 2016), the CYP2C9 inhibition result is “competitive inhibitory effects”. The CYP1A1 inhibition result in the series on CYP1A1 was “competitive inhibitory effects”. Moreover, the “Absorption into the blood after oral administration” value in [7] is “not absorbed into the blood”.

The record behind these values is publication PMC10361251, “Absorption, tissue distribution, and excretion of glycycoumarin, a major bioactive coumarin from Chinese licorice (Glycyrrhiza uralensis Fisch)” (Frontiers in Pharmacology, 2023).
